We go through eleven molecules from PubChem BioAssay AID270 (DTP/NCI, 2004).

The subject of this experiment is BDF1 mice, s.c. Lewis lung carcinoma, T/C %. Kind of experiment: NCI In Vivo Anticancer Drug Screen. Data for tumor model Lewis Lung Carcinoma (subcutaneous) in B6D2F1 (BDF1) mice. In short, it runs like this: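 The value reflects a ratio in which the treated cohort's survival time or tumour size is compared against mice receiving only vehicle.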
Where [1] appears, read: endpoint: median survival time, dose: 8.0 mg/kg/injection, schedule: Q01DX009 (ip), vehicle: saline, higher = longer survival.
[2] abbreviates: endpoint: median survival time, dose: 16.0 mg/kg/injection, schedule: Q01DX009 (ip), vehicle: saline, higher = longer survival.
[3] abbreviates: endpoint: median survival time, dose: 32.0 mg/kg/injection, schedule: Q01DX009 (ip), vehicle: saline, higher = longer survival.

Values joined by “and” are separate entries in the source; they are usually repeats but may differ in a detail not shown here. Identical values can stand only once. Records with an inconclusive call do not appear.

For the molecule `COc1cccc2c1C(=O)c1c(O)c3c(c(O)c1C2=O)C[C@@](O)(C(=O)CO)C[C@@H]3OC1CC(N)C(O)C(C)O1` (stereo partly drawn), the T/C (endpoint: median survival time, dose: 0.03 mg/kg/injection, schedule: Q01DX009 (ip), vehicle: saline, higher = longer survival) is 88 % of control; the T/C (endpoint: median survival time, dose: 0.06 mg/kg/injection, schedule: Q01DX009 (ip), vehicle: saline, higher = longer survival) is 88 % of control; the T/C (endpoint: median survival time, dose: 0.12 mg/kg/injection, schedule: Q01DX009 (ip), vehicle: saline, higher = longer survival) was 100 % of control; the T/C (endpoint: median survival time, dose: 0.25 mg/kg/injection, schedule: Q01DX009 (ip), vehicle: saline, higher = longer survival) is 105 % of control; the T/C (endpoint: median survival time, dose: 0.25 mg/kg/injection, schedule: Q08HX024 (ip), vehicle: saline, higher = longer survival) was 113 % of control; the T/C (endpoint: median survival time, dose: 0.5 mg/kg/injection, schedule: Q08HX024 (ip), vehicle: saline, higher = longer survival) was 182 % of control. Besides, the T/C by setting is: (endpoint: median survival time, dose: 1.0 mg/kg/injection, schedule: Q08HX024 (ip), vehicle: saline, higher = longer survival) 89 % of control; (endpoint: median survival time, dose: 1.92 mg/kg/injection, schedule: Q04DX003 (ip), vehicle: saline, higher = longer survival) 104 % of control and 106 % of control; (endpoint: median survival time, dose: 1.92 mg/kg/injection, schedule: Q04DX003 (iv), vehicle: saline, higher = longer survival) 93 % of control and 108 % of control; (endpoint: median survival time, dose: 2.74 mg/kg/injection, schedule: Q04DX003 (ip), vehicle: saline, higher = longer survival) 99 % of control and 103 % of control; (endpoint: median survival time, dose: 2.74 mg/kg/injection, schedule: Q04DX003 (iv), vehicle: saline, higher = longer survival) 99 % of control and 111 % of control; (endpoint: median survival time, dose: 3.36 mg/kg/injection, schedule: Q01DX001 (ip), vehicle: saline, higher = longer survival) 101 % of control and 102 % of control. Further, the T/C runs as follows: (endpoint: median survival time, dose: 3.36 mg/kg/injection, schedule: Q01DX001 (iv), vehicle: saline, higher = longer survival) 101 % of control and 105 % of control; (endpoint: median survival time, dose: 3.9 mg/kg/injection, schedule: Q04DX003 (ip), vehicle: saline, higher = longer survival) 105 % of control and 123 % of control; (endpoint: median survival time, dose: 3.9 mg/kg/injection, schedule: Q04DX003 (iv), vehicle: saline, higher = longer survival) 108 % of control and 113 % of control; (endpoint: median survival time, dose: 4.8 mg/kg/injection, schedule: Q01DX001 (ip), vehicle: saline, higher = longer survival) 98 % of control and 102 % of control; (endpoint: median survival time, dose: 4.8 mg/kg/injection, schedule: Q01DX001 (iv), vehicle: saline, higher = longer survival) 90 % of control and 102 % of control; (endpoint: median survival time, dose: 5.6 mg/kg/injection, schedule: Q04DX003 (iv), vehicle: saline, higher = longer survival) 105 % of control. Moreover, the T/C by setting is: (endpoint: median survival time, dose: 6.86 mg/kg/injection, schedule: Q01DX001 (ip), vehicle: saline, higher = longer survival) 117 % of control; (endpoint: median survival time, dose: 6.86 mg/kg/injection, schedule: Q01DX001 (iv), vehicle: saline, higher = longer survival) 111 % of control and 114 % of control; (endpoint: median survival time, dose: 9.8 mg/kg/injection, schedule: Q01DX001 (iv), vehicle: saline, higher = longer survival) 105 % of control; (endpoint: median survival time, dose: 14.0 mg/kg/injection, schedule: Q01DX001 (ip), vehicle: saline, higher = longer survival) 99 % of control.
Consider `CCCCOB(/C=C/Sc1ccccc1)OCCCC`, for which, under “endpoint: median survival time, dose: 50.0 mg/kg/injection, schedule: Q01DX009 (ip), vehicle: saline with Tween-80, higher = longer survival”, the T/C is 95 % of control.
In the case of `OCC1OC(Oc2ccc(O)cc2)C(O)C(O)C1O` (stereo not drawn), the T/C reads like this: (endpoint: median survival time, dose: 50.0 mg/kg/injection, schedule: Q01DX009 (ip), vehicle: saline, higher = longer survival) 95 % of control; (endpoint: median survival time, dose: 100.0 mg/kg/injection, schedule: Q01DX009 (ip), vehicle: saline, higher = longer survival) 106 % of control; (endpoint: median survival time, dose: 200.0 mg/kg/injection, schedule: Q01DX009 (ip), vehicle: saline, higher = longer survival) 92 % of control; (endpoint: median survival time, dose: 400.0 mg/kg/injection, schedule: Q01DX009 (ip), vehicle: saline, higher = longer survival) 106 % of control.
As for `Nc1n[nH]c(N)n1`, the T/C (endpoint: median survival time, dose: 100.0 mg/kg/injection, schedule: Q01DX009 (ip), vehicle: saline with Tween-80, higher = longer survival) is 113 % of control; the T/C (endpoint: median survival time, dose: 200.0 mg/kg/injection, schedule: Q01DX009 (ip), vehicle: saline with Tween-80, higher = longer survival) was 102 % of control; the T/C (endpoint: median survival time, dose: 400.0 mg/kg/injection, schedule: Q01DX009 (ip), vehicle: saline with Tween-80, higher = longer survival) is 95 % of control; the T/C (endpoint: median survival time, dose: 800.0 mg/kg/injection, schedule: Q01DX009 (ip), vehicle: saline with Tween-80, higher = longer survival) was 110 % of control; the T/C (endpoint: median tumor weight (est.), dose: 100.0 mg/kg/injection, schedule: Q01DX009 (ip), vehicle: saline with Tween-80, higher = larger tumour) is 100 % of control; the T/C (endpoint: median tumor weight (est.), dose: 200.0 mg/kg/injection, schedule: Q01DX009 (ip), vehicle: saline with Tween-80, higher = larger tumour) is 103 % of control. The T/C (endpoint: median tumor weight (est.), dose: 400.0 mg/kg/injection, schedule: Q01DX009 (ip), vehicle: saline with Tween-80, higher = larger tumour) was 97 % of control and the T/C (endpoint: median tumor weight (est.), dose: 800.0 mg/kg/injection, schedule: Q01DX009 (ip), vehicle: saline with Tween-80, higher = larger tumour) is 91 % of control.
On to `C1CC[N-]CC1.C1CC[N-]CC1.C1CC[N-]CC1.[Cl][Rh]([Cl])[Cl]`, for which the T/C (endpoint: median survival time, dose: 4.0 mg/kg/injection, schedule: Q01DX009 (ip), vehicle: saline, higher = longer survival) is 96 % of control; the T/C under setting [1] was 93 % of control; the T/C under setting [2] is 103 % of control; the T/C under setting [3] was 98 % of control; the T/C (endpoint: median survival time, dose: 64.0 mg/kg/injection, schedule: Q01DX009 (ip), vehicle: saline, higher = longer survival) is 92 % of control.
`COC(=O)c1nc(-c2ccc3c(n2)C(=O)C(N)=C(OC)C3=O)c(N)c(-c2ccc(OC)c(OC)c2O)c1C`: the T/C was 65 % of control (endpoint: mean tumor weight, dose: 0.25 mg/kg/injection, schedule: Q01DX011 (ip), vehicle: other, higher = larger tumour); 70 % of control (endpoint: mean tumor weight, dose: 0.5 mg/kg/injection, schedule: Q01DX011 (ip), vehicle: other, higher = larger tumour); 45 % of control (endpoint: mean tumor weight, dose: 1.0 mg/kg/injection, schedule: Q01DX011 (ip), vehicle: other, higher = larger tumour).
For `C=C1C(=O)OC2C3OC(C)(CCC(O)C3COC(C)=O)CC(OC(=O)/C(=C/C)COC(C)=O)C12` (stereo not drawn), the T/C by setting is: (endpoint: median survival time, dose: 3.12 mg/kg/injection, schedule: Q01DX009 (ip), vehicle: Klucel (hydroxypropylcellulose) (HPC), higher = longer survival) 107 % of control; (endpoint: median survival time, dose: 3.13 mg/kg/injection, schedule: Q01DX009 (ip), vehicle: Klucel (hydroxypropylcellulose) (HPC), higher = longer survival) 101 % of control; (endpoint: median survival time, dose: 6.25 mg/kg/injection, schedule: Q01DX009 (ip), vehicle: Klucel (hydroxypropylcellulose) (HPC), higher = longer survival) 101 % of control; (endpoint: median survival time, dose: 12.5 mg/kg/injection, schedule: Q01DX009 (ip), vehicle: Klucel (hydroxypropylcellulose) (HPC), higher = longer survival) 114 % of control; (endpoint: median survival time, dose: 25.0 mg/kg/injection, schedule: Q01DX009 (ip), vehicle: Klucel (hydroxypropylcellulose) (HPC), higher = longer survival) 106 % of control.
For the molecule `CCCCCCCCCCCCCCCCCC(=O)NN`, the T/C (endpoint: median survival time, dose: 200.0 mg/kg/injection, schedule: Q01DX009 (ip), vehicle: Klucel (hydroxypropylcellulose) (HPC), higher = longer survival) was 120 % of control.
`O=[N+]([O-])O.[Ga]`: the T/C under setting [1] was 118 % of control, the T/C under setting [2] was 158 % of control and the T/C under setting [3] is 99 % of control.
As to `CCCCC[C@H](O)/C=C/[C@@H]1[C@@H](C/C=C\CCCC(=O)O)[C@@H](O)C[C@H]1O`, the T/C is 118 % of control (endpoint: median survival time, dose: 2.5 mg/kg/injection, schedule: Q04DX003 (ip), vehicle: saline, higher = longer survival); 105 % of control (endpoint: median survival time, dose: 5.0 mg/kg/injection, schedule: Q04DX003 (ip), vehicle: saline, higher = longer survival); 95 % of control (endpoint: median survival time, dose: 10.0 mg/kg/injection, schedule: Q04DX003 (ip), vehicle: saline, higher = longer survival); 118 % of control (endpoint: median survival time, dose: 20.0 mg/kg/injection, schedule: Q04DX003 (ip), vehicle: saline, higher = longer survival); 87 % of control (endpoint: median survival time, dose: 40.0 mg/kg/injection, schedule: Q04DX003 (ip), vehicle: saline, higher = longer survival); 93 % of control (endpoint: median survival time, dose: 80.0 mg/kg/injection, schedule: Q04DX003 (ip), vehicle: saline, higher = longer survival). Moreover, the T/C is 87 % of control (endpoint: median survival time, dose: 160.0 mg/kg/injection, schedule: Q04DX003 (ip), vehicle: saline, higher = longer survival) and 106 % of control (endpoint: median survival time, dose: 320.0 mg/kg/injection, schedule: Q04DX003 (ip), vehicle: saline, higher = longer survival).
For the molecule `Nc1c(Cl)c(Cl)nc(C(=O)O)c1Cl`, the T/C reads like this: (endpoint: median survival time, dose: 25.0 mg/kg/injection, schedule: Q02DX009 (ip), vehicle: Klucel (hydroxypropylcellulose) (HPC), higher = longer survival) 109 % of control; (endpoint: median survival time, dose: 25.0 mg/kg/injection, schedule: Q02DX009 (ip), vehicle: distilled water + Tween-80, higher = longer survival) 121 % of control; (endpoint: median survival time, dose: 50.0 mg/kg/injection, schedule: Q02DX009 (ip), vehicle: Klucel (hydroxypropylcellulose) (HPC), higher = longer survival) 98 % of control; (endpoint: median survival time, dose: 50.0 mg/kg/injection, schedule: Q02DX009 (ip), vehicle: distilled water + Tween-80, higher = longer survival) 104 % of control; (endpoint: median survival time, dose: 100.0 mg/kg/injection, schedule: Q02DX009 (ip), vehicle: Klucel (hydroxypropylcellulose) (HPC), higher = longer survival) 91 % of control; (endpoint: median survival time, dose: 100.0 mg/kg/injection, schedule: Q02DX009 (ip), vehicle: distilled water + Tween-80, higher = longer survival) 88 % of control. In addition, the T/C is 92 % of control (endpoint: median survival time, dose: 200.0 mg/kg/injection, schedule: Q02DX009 (ip), vehicle: Klucel (hydroxypropylcellulose) (HPC), higher = longer survival) and 100 % of control (endpoint: median survival time, dose: 200.0 mg/kg/injection, schedule: Q02DX009 (ip), vehicle: distilled water + Tween-80, higher = longer survival).
